Tests used:
[1] = system: Mycobacterium tuberculosis; experiment: Antitubercular activity against Mycobacterium tuberculosis H37Rv assessed as reduction in microbial growth by microplate alamar blue assay; format: functional
[2] = biological target: Polyketide synthase Pks13 (Mycobacterium tuberculosis (strain ATCC 25618 / H37Rv)) (UniProt I6X8D2); experiment: Induction of stabilization of Mycobacterium tuberculosis H37Rv Pks-13 TE domain assessed as melting temperature incubated for 30 mins by NanoDSF assay
Sequence of Polyketide synthase Pks13 (Mycobacterium tuberculosis (strain ATCC 25618 / H37Rv)) (I6X8D2 whole entry, the tested form may be a part): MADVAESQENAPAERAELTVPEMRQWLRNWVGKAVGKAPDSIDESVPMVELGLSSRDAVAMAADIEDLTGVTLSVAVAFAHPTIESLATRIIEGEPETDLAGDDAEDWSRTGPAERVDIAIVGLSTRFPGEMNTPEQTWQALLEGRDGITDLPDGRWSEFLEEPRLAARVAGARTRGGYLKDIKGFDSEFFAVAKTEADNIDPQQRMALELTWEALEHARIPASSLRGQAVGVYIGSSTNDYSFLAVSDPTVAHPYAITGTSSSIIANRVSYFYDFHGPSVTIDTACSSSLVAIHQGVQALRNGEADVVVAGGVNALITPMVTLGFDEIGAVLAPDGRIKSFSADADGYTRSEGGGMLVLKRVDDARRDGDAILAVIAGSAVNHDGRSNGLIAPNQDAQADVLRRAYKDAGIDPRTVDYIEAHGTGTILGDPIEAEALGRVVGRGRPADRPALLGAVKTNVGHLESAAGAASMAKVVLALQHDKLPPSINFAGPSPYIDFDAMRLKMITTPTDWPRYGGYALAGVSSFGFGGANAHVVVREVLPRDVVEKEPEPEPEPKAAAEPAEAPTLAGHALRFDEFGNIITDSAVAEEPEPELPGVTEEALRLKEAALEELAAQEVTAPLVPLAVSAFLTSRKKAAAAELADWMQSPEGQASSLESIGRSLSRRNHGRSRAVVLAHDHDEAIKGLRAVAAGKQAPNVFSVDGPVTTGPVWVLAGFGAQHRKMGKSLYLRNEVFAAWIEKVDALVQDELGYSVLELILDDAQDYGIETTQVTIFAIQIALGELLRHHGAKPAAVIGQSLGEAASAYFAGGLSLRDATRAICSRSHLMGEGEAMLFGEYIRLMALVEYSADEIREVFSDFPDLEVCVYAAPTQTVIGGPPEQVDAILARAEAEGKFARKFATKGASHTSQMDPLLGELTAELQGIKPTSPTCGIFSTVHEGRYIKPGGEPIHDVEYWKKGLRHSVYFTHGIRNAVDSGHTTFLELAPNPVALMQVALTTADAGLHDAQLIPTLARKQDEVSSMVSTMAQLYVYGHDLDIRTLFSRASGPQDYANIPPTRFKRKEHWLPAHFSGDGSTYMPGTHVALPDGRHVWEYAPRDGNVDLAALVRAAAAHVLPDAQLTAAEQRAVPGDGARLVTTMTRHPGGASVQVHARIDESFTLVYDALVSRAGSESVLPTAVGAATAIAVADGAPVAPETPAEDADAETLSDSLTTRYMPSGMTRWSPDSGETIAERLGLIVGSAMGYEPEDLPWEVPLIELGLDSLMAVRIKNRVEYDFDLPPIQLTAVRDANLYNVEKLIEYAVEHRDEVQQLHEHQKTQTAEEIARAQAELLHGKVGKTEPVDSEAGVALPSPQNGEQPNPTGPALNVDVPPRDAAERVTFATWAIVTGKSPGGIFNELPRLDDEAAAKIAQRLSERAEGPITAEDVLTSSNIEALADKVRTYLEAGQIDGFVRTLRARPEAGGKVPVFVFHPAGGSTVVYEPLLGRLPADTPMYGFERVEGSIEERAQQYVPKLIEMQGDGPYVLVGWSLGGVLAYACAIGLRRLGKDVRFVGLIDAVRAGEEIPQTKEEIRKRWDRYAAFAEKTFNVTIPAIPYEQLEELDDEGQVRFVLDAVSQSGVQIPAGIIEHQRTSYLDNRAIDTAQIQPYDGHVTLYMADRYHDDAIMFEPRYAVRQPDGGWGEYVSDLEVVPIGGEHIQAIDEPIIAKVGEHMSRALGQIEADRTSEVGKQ

[3] = biological target: Polyketide synthase Pks13 (Mycobacterium tuberculosis (strain ATCC 25618 / H37Rv)) (UniProt I6X8D2); experiment: Induction of stabilization of Mycobacterium tuberculosis H37Rv Pks-13 TE domain assessed as change in melting temperature incubated for 30 mins by NanoDSF assay
[4] = biological target: Polyketide synthase Pks13 (Mycobacterium tuberculosis (strain ATCC 25618 / H37Rv), UniProt I6X8D2); experiment: Inhibition of Mycobacterium tuberculosis H37Rv Pks-13 TE domain using 4-MUH as fluorogenic substrate incubated for 90 mins by fluorescence based analysis
Sequence of Polyketide synthase Pks13 (I6X8D2 whole entry, the tested form may be a part): as above

[5] = biological target: Voltage-gated inwardly rectifying potassium channel KCNH2 (Homo sapiens, UniProt Q12809); experiment: Inhibition of human ERG expressed in CHO cells incubated for 2.5 mins by Q-patch-clamp electrophysiological analysis; format: toxicity, cell-based
Sequence of Voltage-gated inwardly rectifying potassium channel KCNH2 (Q12809 whole entry): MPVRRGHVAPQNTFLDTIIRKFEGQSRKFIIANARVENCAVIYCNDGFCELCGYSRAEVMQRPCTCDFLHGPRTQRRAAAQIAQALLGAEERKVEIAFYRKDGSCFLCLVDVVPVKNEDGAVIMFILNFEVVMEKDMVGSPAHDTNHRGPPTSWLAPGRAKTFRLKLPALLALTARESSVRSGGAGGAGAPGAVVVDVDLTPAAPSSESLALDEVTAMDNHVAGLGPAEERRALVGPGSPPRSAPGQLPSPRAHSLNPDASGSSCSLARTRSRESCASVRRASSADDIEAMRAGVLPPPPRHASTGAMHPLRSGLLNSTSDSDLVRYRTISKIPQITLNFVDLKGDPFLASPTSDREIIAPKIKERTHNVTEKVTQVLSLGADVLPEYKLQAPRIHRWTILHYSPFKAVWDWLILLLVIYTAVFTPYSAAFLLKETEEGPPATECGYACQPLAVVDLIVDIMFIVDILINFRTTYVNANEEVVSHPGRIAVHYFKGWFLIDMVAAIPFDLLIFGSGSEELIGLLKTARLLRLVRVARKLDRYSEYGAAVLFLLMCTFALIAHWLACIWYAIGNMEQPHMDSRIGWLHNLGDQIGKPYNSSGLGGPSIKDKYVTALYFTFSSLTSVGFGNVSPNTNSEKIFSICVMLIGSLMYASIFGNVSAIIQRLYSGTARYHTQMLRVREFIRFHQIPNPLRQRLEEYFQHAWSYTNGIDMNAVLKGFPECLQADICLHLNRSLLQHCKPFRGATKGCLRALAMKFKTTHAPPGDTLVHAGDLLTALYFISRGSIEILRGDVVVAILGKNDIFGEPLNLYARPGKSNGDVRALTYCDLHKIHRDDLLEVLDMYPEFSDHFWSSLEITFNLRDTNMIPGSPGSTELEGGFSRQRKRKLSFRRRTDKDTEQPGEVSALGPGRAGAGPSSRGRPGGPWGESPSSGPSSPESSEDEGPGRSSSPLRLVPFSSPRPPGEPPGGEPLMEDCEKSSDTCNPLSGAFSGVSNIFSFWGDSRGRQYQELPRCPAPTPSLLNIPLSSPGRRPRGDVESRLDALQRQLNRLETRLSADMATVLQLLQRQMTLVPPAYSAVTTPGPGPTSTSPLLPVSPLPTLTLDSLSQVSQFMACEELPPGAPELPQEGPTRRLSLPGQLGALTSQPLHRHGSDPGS

[6] = Metabolic stability in human liver microsomes assessed as half life at 0.1 uM measured upto 60 mins by LC/MS-MS analysis; format: ADME, Microsome
[7] = Metabolic stability in human liver microsomes assessed as intrinsic clearance at 0.1 uM measured upto 60 mins by LC/MS-MS analysis; format: ADME, Microsome; conditions: read-out: CLH
[8] = Metabolic stability in human liver microsomes assessed as parent compound remaining at 0.1 uM incubated for 60 mins by LC/MS-MS analysis; format: ADME, Microsome; conditions: read-out: Stability
[9] = system: Mycobacterium tuberculosis; experiment: Antitubercular activity against Mycobacterium tuberculosis H37Rv assessed as reduction in microbial growth incubated for 6 days by microplate alamar blue assay; format: functional; conditions: 144 h, time 6 day

| Compound | MIC [1] | also measured |
| --- | --- | --- |
| CN1CN(CC2CCCC2)Cc2c(O)ccc3oc(-c4ccc(O)cc4)c(c23)C1=O | 2 µg/mL |  |
| CN1CN(C2CCC2)Cc2c(O)ccc3c2c(cn3-c2ccc(Br)cc2)C1=O | 8 µg/mL |  |
| CNC(=O)c1c(-c2ccc(O)cc2)oc2ccc(O)c(CN3CCCCC3)c12 |  | Tm [2]: 67.4 °C; ΔTm [3]: 8.4 °C |
| CN1CN(CC2CCC2)Cc2c(O)ccc3oc(-c4ccccc4)c(c23)C1=O | 0.5 µg/mL |  |
| CN1CN(C2CCCCC2)Cc2c(O)ccc3oc(-c4ccc(O)cc4)c(c23)C1=O | 8 µg/mL |  |
| CC1c2c(O)ccc3c2c(cn3-c2ccccc2)CCN1CC1CCC1 (stereo unspecified) | 8 µg/mL |  |
| CC(C)CCN1Cc2c(O)ccc3oc(-c4ccc(O)cc4)c(c23)C(=O)N(C)C1 | 0.25 µg/mL |  |
| CN1CN(C2CCCC2)Cc2c(O)ccc3oc(-c4ccc(O)cc4)c(c23)C1=O | 0.125 µg/mL | Tm [2]: 66 °C; ΔTm [3]: 7 °C; IC50 [4]: 5.87 µM; IC50 [5]: > 100 µM; half-life at 0.1 µM [6]: 28.9 min; microsomal CLint at 0.1 µM [7]: 48 µL/min/mg; remaining at 1 h, 0.1 µM [8]: 23.3% |
| CC(C)CN1Cc2c(O)ccc3oc(-c4ccc(O)cc4)c(c23)C(=O)N(C)C1 | 0.062 µg/mL |  |
| O=c1oc2cc(O)ccc2c2oc3ccc(O)c(CN4CCCCC4)c3c12 |  | IC50 [5]: 0.52 µM |
| CN1CN(C2CCC2)Cc2c(O)ccc3oc(-c4ccc(O)cc4)c(c23)C1=O | 0.125 µg/mL |  |
| CC(=O)c1c(C)n(-c2ccc(Br)cc2)c2ccc(O)c(CN3CCCCC3)c12 | 0.125 µg/mL |  |
| Oc1ccc2c3c(cn2-c2ccc(Br)cc2)CCN(CC2CC2)Cc13 | 16 µg/mL |  |
| CN1CN(CC2CCCCC2)Cc2c(O)ccc3oc(-c4ccc(O)cc4)c(c23)C1=O | 16 µg/mL |  |
| CCOC(=O)c1c(NC(=O)c2c(F)c(F)c(F)c(F)c2F)sc2c1CCN(CC)C2 |  | MIC [9]: 0.23 µM |
| O=C(O)Cc1ccccc1Nc1c(Cl)cccc1Cl [DICLOFENAC] |  | microsomal CLint at 0.1 µM [7]: 248 µL/min/mg |
| Oc1ccc2c3c(cn2-c2ccc(Br)cc2)CCN(CC2CCC2)Cc13 | 8 µg/mL | half-life at 0.1 µM [6]: 51.5 min; microsomal CLint at 0.1 µM [7]: 26.9 µL/min/mg; remaining at 1 h, 0.1 µM [8]: 44.1% |
| CN1CN(CC2CCC2)Cc2c(O)ccc3c2c(cn3-c2ccc(Br)cc2)C1=O | 8 µg/mL |  |
| CN1CN(CC2CC2)Cc2c(O)ccc3c2c(cn3-c2ccc(Br)cc2)C1=O | 8 µg/mL |  |
| CC1c2c(O)ccc3c2c(cn3-c2ccccc2)CCN1CC1CC1 (stereo unspecified) | 16 µg/mL |  |
| Oc1ccc2c3c(cn2-c2ccc(Br)cc2)CCN(C2CCC2)Cc13 | 16 µg/mL |  |

| Compound | MIC [1] | also measured |
| --- | --- | --- |
| CN1CN(CCCC2CCCCC2)Cc2c(O)ccc3oc(-c4ccc(O)cc4)c(c23)C1=O | > 64 µg/mL |  |
| CN1CN(CC2CCCC2)Cc2c(O)ccc3c2c(cn3-c2ccc(Br)cc2)C1=O | > 64 µg/mL |  |
| CC1c2c(O)ccc3c2c(cn3-c2ccc(Br)cc2)CCN1C1CCC1 (stereo unspecified) | 8 µg/mL |  |
| CC1c2c(O)ccc3c2c(cn3-c2ccc(Br)cc2)C(=O)CN1CC1CC1 (stereo unspecified) | 32 µg/mL |  |
| CN1CN(CCC2CC2)Cc2c(O)ccc3oc(-c4ccc(O)cc4)c(c23)C1=O | 0.25 µg/mL |  |
| CN1CN(CC2CCC2)Cc2c(O)ccc3oc(-c4ccc(O)cc4)c(c23)C1=O | 0.016 µg/mL | Tm [2]: 65.8 °C; ΔTm [3]: 6.8 °C; IC50 [4]: 2.1 µM; IC50 [5]: > 100 µM; half-life at 0.1 µM [6]: 17.7 min; microsomal CLint at 0.1 µM [7]: 78.2 µL/min/mg; remaining at 1 h, 0.1 µM [8]: 8.2% |
| CN1CN(CC2CCC2)Cc2c(O)ccc3oc(-c4ccc(F)cc4)c(c23)C1=O | 2 µg/mL |  |
| COc1ccc(-c2oc3ccc(OC)c4c3c2C(=O)N(C)CN(CC2CCC2)C4)cc1 | 64 µg/mL |  |
| CC1c2c(O)ccc3c2c(cn3-c2ccc(Br)cc2)C(=O)CN1C1CCC1 (stereo unspecified) | 64 µg/mL |  |
| CC1c2c(O)ccc3c2c(cn3-c2ccc(Br)cc2)C(=O)CN1CC1CCC1 (stereo unspecified) | > 64 µg/mL |  |
| COc1ccc(-c2oc3ccc(O)c4c3c2C(=O)N(C)CN(CC2CCC2)C4)cc1 | 0.25 µg/mL |  |
| CC1c2c(O)ccc3c2c(cn3-c2ccc(Br)cc2)CCN1CC1CC1 (stereo unspecified) | 8 µg/mL |  |
| CN1CN(CC2CC2)Cc2c(O)ccc3oc(-c4ccc(O)cc4)c(c23)C1=O | 0.031 µg/mL | IC50 [5]: > 100 µM |
| CN1CN(CC2CCC2)Cc2c(O)ccc3oc(-c4cccc(O)c4)c(c23)C1=O | 0.125 µg/mL |  |
| CN1CN(C2CCCC2)Cc2c(O)ccc3c2c(cn3-c2ccc(Br)cc2)C1=O | 1 µg/mL |  |
| COc1ccc2oc(-c3ccc(O)cc3)c3c2c1CN(CC1CCC1)CN(C)C3=O | 64 µg/mL |  |
| C[C@]12CC[C@H]3[C@@H](CCC4=CC(=O)CC[C@@]43C)[C@@H]1CC[C@@H]2O [TESTOSTERONE] |  | remaining at 1 h, 0.1 µM [8]: 4.1% |
| COc1cccc(-c2oc3ccc(O)c4c3c2C(=O)N(C)CN(CC2CCC2)C4)c1 | 4 µg/mL |  |
| CC1c2c(O)ccc3c2c(cn3-c2ccccc2)CCN1C1CCC1 (stereo unspecified) | 16 µg/mL |  |
| O=C1NCN(C2CCCC2)Cc2c(O)ccc3oc(-c4ccc(O)cc4)c1c23 | 0.5 µg/mL |  |
| CC1c2c(O)ccc3c2c(cn3-c2ccc(Br)cc2)CCN1CC1CCC1 (stereo unspecified) | 8 µg/mL |  |
